From the METLIN SMRT retention time set (Domingo-Almenara et al. 2019)

Experiment: gradient 5% acetonitrile 3 min, to 50% in 2 min, to 85% in 15 min, held 3 min, 100 µL/min
Settings: column: Zorbax Extend-C18 2.1 x 50 mm; eluents: water / acetonitrile, 0.1% formic acid
Method in brief: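 Retention time was recorded from adduct peaks, which were picked computationally and each inspected manually. Pure standards ran in mixtures of ~100 molecules on HPLC coupled to a quadrupole time-of-flight mass spectrometer, in positive and negative ionization mode, through a Zorbax Extend-C18 column (2.1 × 50 mm, 1.8 μm) at 100 μL/min. Eluents were water and acetonitrile, each with 0.1% formic acid.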

Structure (SMILES) | RP-LC retention time
Cc1ccc(C(=O)Nc2nc(-c3ccc4c(c3)NC(=O)CO4)cs2)cc1 | 873 s
CCn1nccc1C(=O)Nc1ccc(-c2nnc3n2CCCC3)cc1 | 1010 s
COc1ccc(Cl)cc1S(=O)(=O)N1CCC(C(=O)NCc2ccccn2)CC1 | 594 s
CC(C)CNC(=O)C1CCN(C(=O)Nc2ccc(NC(=O)NC3CCCC3)cc2)CC1 | 728 s
CSc1ccc(CNC(=O)CCc2c(-c3ccc(F)cc3)nc3ccccn23)cc1 | 692 s
Cn1cc(C(CNC(=O)Nc2ccccc2)c2cccnc2)c2ccccc21 (stereo not drawn) | 680 s
NC(=O)c1cccc(-c2cc(Nc3ccc(OC(F)(F)F)cc3)ncn2)c1 | 765 s
Cc1ccc(C)c(NC(=O)Cc2csc3nc(-c4ccccc4)cn23)c1 | 845 s
C=C1[C@@H](C)[C@H]2[C@H](Cc3ccccc3)NC(=O)C23[C@H](OC(C)=O)/C=C/[C@](C)(O)C(=O)[C@@H](C)C/C=C/[C@H]3[C@@H]1O (stereo partly drawn) | 801 s
COc1cc(-c2nnc(/C=C/c3cccs3)o2)cc(OC)c1OC | 886 s
CCCN1CCN(C(=O)C(C)n2nc(C)c3nn(-c4ccccc4)c(-n4cccc4)c3c2=O)CC1 (stereo not drawn) | 692 s
COC(=O)c1cn(CC(=O)N2CCc3ccccc3C2)c2ccccc12 | 964 s
Cc1ccc(Cl)cc1N1CCN(c2ccc3cc(S(=O)(=O)N4CCCCC4C)ccc3n2)CC1 (stereo not drawn) | 1420 s
Cc1cc2c(cc1S(=O)(=O)N1CCCC1C(=O)Nc1ccc(Cl)cc1F)OCC(=O)N2 (stereo not drawn) | 843 s
O=C(CC1CCN(C(=O)C2(c3ccccc3)CC2)C1)NC1CC1 (stereo not drawn) | 666 s
Cc1ccc(N2CC(c3noc(-c4cccc(C)c4)n3)CC2=O)cc1 (stereo not drawn) | 1090 s
Cc1csc(-c2cc(S(=O)(=O)NCc3ccc(C(C)C)cc3)cn2CC(=O)N2CCCC2)n1 | 1030 s
CC(C)OCCCNC(=O)Cn1c2ccccc2c2cnn(C)c(=O)c21 | 745 s
Cn1c(=O)n(CCCC#N)c2cncnc21 | 550 s
CC(C)OCCCNC(=O)CCC(=O)N1CC2CCCN2c2ccccc21 (stereo not drawn) | 822 s
CN1C(=O)[C@H]2CN(Cc3cccc(C#N)c3)C[C@H]2C1=O | 531 s
CC1=NOC(C)(CNC(=O)NC2CCCCC2)C1 (stereo not drawn) | 659 s

Structure (SMILES) | RP-LC retention time
O=C(c1ccc(/C=C/c2n[nH]c3ccccc23)cc1)N1CCNCC1 | 648 s
Cc1nc(N2CCN(C(=O)CCCc3ccccc3)CC2)cc(-n2cccn2)n1 | 928 s
Cc1cnn(Cc2c(C(=O)N3CCc4nn(C)c(=O)n4CC3)noc2C)c1 | 602 s
Cc1ccc2c(c1Br)C(O)(CC(=O)c1ccc(F)cc1)C(=O)N2 (stereo not drawn) | 802 s
O=C([C@@H]1C[C@H](F)CN1S(=O)(=O)Cc1cccc(Cl)c1)N1CCc2ccccc2C1 | 1000 s
CCc1nc(-c2ccc(S(=O)(=O)N3CCC(C(=O)Nc4ccc5c(c4)OCCO5)CC3)cc2)no1 | 929 s
O=C(NCC(O)c1ccsc1)Nc1cccs1 (stereo not drawn) | 642 s
O=C(c1ccc(F)c(F)c1)N1CCc2[nH]cnc2C1c1ccccc1 (stereo not drawn) | 652 s
O=C(NCc1ccccc1)c1ccc2c(c1)CCN2C(=O)C1CC1 | 794 s
O=C(Nc1cccc(C(F)(F)F)c1)c1ccc(-n2cnc(NC(=O)C3CC3)c2)cc1 | 872 s
Cn1cc(Cl)c(C(=O)N2CCCC2c2ccccc2F)n1 (stereo not drawn) | 813 s
O=C(NCCc1ccccc1)Nc1ccccc1NC(=O)c1ccsc1 | 796 s
CCc1nc(N)n(CC(=O)NCc2ccccc2Cl)c(=O)c1C | 616 s
O=C(Nc1ccc(Br)cc1F)c1cc(-c2cccnc2)n[nH]1 | 733 s
Cc1cccc(C)c1NC(=O)NC1CCN(c2nc3ccccc3n(C)c2=O)CC1 | 838 s
CCOCCCNC(=O)c1cc2sc(C)cc2n1C | 861 s
CC(C)=C1C(=O)Nc2ccc(S(=O)(=O)N3CCN(c4ccccn4)CC3)cc21 | 612 s
CCOc1ccc(-c2cc3c(=O)n(Cc4nc(-c5cccc(F)c5)no4)ccn3n2)cc1 | 1140 s
Cn1c(=O)c2ccn(CC(=O)N3CCN(c4ncccn4)CC3)c2n(C)c1=O | 595 s
Cc1oc2ncnc(OCC(=O)Nc3ccc(S(N)(=O)=O)cc3)c2c1C | 738 s
O=C(NCc1csc(-c2ccccc2)n1)C1CCN(S(=O)(=O)c2cccc(Cl)c2)CC1 | 962 s
COc1cc(NC(=O)c2nc(C)oc2C)cc(OC)c1 | 750 s

Structure (SMILES) | RP-LC retention time
COc1cccc(NC(=O)C2CCN(c3cc(N4CCCCC4)ncn3)CC2)c1 | 708 s
Cc1cccc(NC(=O)Nc2ccc3nncn3c2)c1 | 690 s
O=S(=O)(c1cccc(Cl)c1)N1CCC2(CCN(c3cccnc3)C2)C1 (stereo not drawn) | 680 s
CCC(C)NC(=O)Cn1c(=O)c(S(=O)(=O)c2ccccc2)cc2cc(C)ccc21 (stereo not drawn) | 879 s
Cc1nc(-c2cc(S(=O)(=O)N3CCN(c4cccc(C)c4C)CC3)c(C)s2)cs1 | 1370 s
NC(=O)C1CCN(c2oc(-c3ccccc3Cl)nc2S(=O)(=O)c2ccccc2)CC1 | 765 s
COCc1cc(=O)n(CC(=O)N2CCN(c3ccc(F)cc3)CC2)c(N2CCOCC2)n1 | 819 s
CCOc1ccccc1NC(=O)N1CCc2nc(-c3ccc(OC)cc3)ncc2C1 | 1000 s
CC(=O)Nc1ccc(C(=O)N2CCN(c3ccc(F)cc3)CC2)c(N2CCCCC2)c1 | 833 s
CS(=O)(=O)Nc1cccc(NC(=O)CCc2c[nH]c3ccccc23)c1 | 714 s
CCOC(=O)C1CCCN(C(=O)c2cc3c(=O)n(C)c(=O)n(C)c3s2)C1 (stereo not drawn) | 674 s
COc1nc2ccccc2nc1N1CCCC(C(=O)NCc2ccccc2)C1 (stereo not drawn) | 1040 s
CCN(CC)CCNC(=O)c1cc2n(n1)CCCN(Cc1cccc(C)c1)C2=O | 630 s
CCn1c(=O)c(N2CCN(C(=O)Nc3ccccc3Br)CC2)nc2cccnc21 | 991 s
Fc1ccc(Cc2nc3nccc(-c4cccs4)n3n2)cc1 | 915 s
CCOC(=O)c1c(S(=O)(=O)N2CCC(C(=O)Nc3ccc(OCC)cc3)CC2)c(C)n(C)c1C | 853 s
Cc1ccc(-c2noc(-c3ccc(=O)n(Cc4cc(C)ccc4C)c3)n2)cc1 | 1260 s
CC(C)Cn1c(=O)c2ccccc2n(Cc2nc(-c3ccc(C(F)(F)F)cc3)no2)c1=O | 1300 s
Cc1ccc(CNC(=O)N2c3ccccc3CC2c2nc(C3CC3)no2)cc1 (stereo not drawn) | 972 s
Cc1ccc(NC(=O)N2CCc3nc[nH]c3C2)cc1 | 575 s
Cc1cc(C)c(S(=O)(=O)Nc2ccc(CC(=O)N3CCC(O)CC3)cc2)c(C)c1 | 676 s
O=S(=O)(c1cc(-c2ccno2)cs1)N(CCc1ccccc1)Cc1ccccc1 | 1200 s

Structure (SMILES) | RP-LC retention time
CCCN(CC1CCOC1)C(=O)Nc1ccccc1OC (stereo not drawn) | 821 s
Cc1ccc(CNC(=O)C2(C)CCN(C(=O)Nc3cccc(Cl)c3C)CC2)cc1 | 717 s
Cc1ccc(Sc2nccnc2N2CCC(C(=O)N3CCOCC3)CC2)cc1 | 881 s
Cc1cc(Cl)ccc1OCCCC(=O)NO | 801 s
Cc1cc(Br)ccc1NC(=O)C1CCN(c2cc(=O)n(C)c(=O)n2C)CC1 | 745 s
Cc1ccccc1CN1N=C(C(=O)N2CCOCC2)S(=O)(=O)c2ccccc21 | 826 s
Cc1ccccc1-c1noc(Cn2c(=O)n(-c3cccc(F)c3)c(=O)c3sccc32)n1 | 1030 s
O=C(NCc1cccc(F)c1)c1cn2c(n1)CCCC2 | 584 s
COc1ccc(C(=O)N2CCC3(CC2)N=C(c2cccc(Br)c2)NO3)c(OC)c1 | 832 s
Cc1ccc(C)c(S(=O)(=O)Nc2ccc3nc(N4CCN(CCC#N)CC4)cc(C(=O)O)c3c2)c1 | 631 s
COCCn1c(-c2ccccc2)cnc1SCC(=O)Nc1ccccc1 | 669 s
Cc1cccc(CNC(=O)c2cc3n(n2)CC(C)(C(=O)NC2CCCC2)N(C)C3=O)c1 (stereo not drawn) | 731 s
Cc1cc(=O)n(CC(=O)Nc2ccc(Cl)cc2)c(N2CCc3ccccc3C2)n1 | 855 s
O=C(NCCc1nc(-c2ccc3c(c2)OCO3)n[nH]1)c1cc(F)ccc1Cl | 660 s
Cc1ccc(C)c(NC(=O)CSc2cc(N3CCN(c4ccccc4F)CC3)ncn2)c1 | 1160 s
O=c1c2sccc2n(Cc2nc(-c3ccc(F)cc3)no2)c(=O)n1Cc1ccc(F)cc1 | 1100 s
Cc1ccc(NC(=O)C2CC(=O)N(c3n[nH]c4cccc(F)c34)C2)cc1 (stereo not drawn) | 708 s
CCS(=O)(=O)N1CC(=O)N(c2cccc(Cl)c2C)C(C)(C(=O)NCc2ccc(F)cc2)C1 (stereo not drawn) | 913 s
Cc1nccn1CCNC(=O)C(=O)Nc1ccc2c(c1)N(C(=O)C(C)C)CCC2 | 571 s
COCCCNC(=O)C1CCN(c2ncccc2S(=O)(=O)N2CCOCC2)CC1 | 613 s
COc1ccc(C(=O)Nc2ccc3c(c2)Sc2ncccc2C(=O)N3C)cn1 | 710 s
O=C(c1ccc(Br)cc1)N1CCC(n2c(-c3ccco3)nc3cccnc32)C1 (stereo not drawn) | 827 s
